Data on five compounds can be found in patent US20190054093A1, “TREATMENT OF SARCOPENIA WITH ECDYSTEROIDS” (priority 2014, published 2019).

Like-named read-outs stand apart in the source and are kept apart here.

One data set deals with MCF7-AR1 cells. Briefly: A-Screen bioassay: androgen-dependent inhibition of E2-induced proliferation. It is filed as cell-based. The settings on record: Homo sapiens; in the presence of E2; read-out: IC50 of inhibition of cell proliferation. How it is done: In this example ATE and RCE were assessed for androgenic activity using the A-screeen assay. MCF7-AR1 is a human cancer-derived cell line which has been genetically engineered to overexpress the androgenic receptor (AR). […] This assay measures androgen-dependent inhibition of proliferation of the androgen receptor (AR)-positive human mammary carcinoma cell line, MCF7-AR1. This cell line has been stably transfected with a full human AR and expresses approximately five times more AR than wild-type cells. MCF7-AR1 cells retain the capacity to proliferate in response to estrogen treatment (E2). Androgens inhibit estrogen-induced proliferation and cells arrest in G0/G1 phase in a dose-dependent manner.
The A-Screen bioassay compares the cell number of similar inocula of MCF-7-AR1 cells growing in media in the absence of any estrogen and androgens (C−, negative control), in the presence of E2 (C+, estrogen control) and in the presence of E2 in combination with different concentrations of the suspected androgen (FIG. 11). Androgenic activity of a test compound results in the inhibition of cell proliferation compared to the E2 control.

Data set [1] relates to protein synthesis in mouse liver. The settings on record: actinomycin D 2 mg/kg 30 minutes before the test substance; cited from earlier work.
In data set [2] the test system is polyribosomes from the livers of mice. The settings on record: cited from earlier work.
Data set [3] relates to Caspase-3 (Casp3) gene expression in C2C12 muscle cells. Briefly: Caspase-3 gene expression in C2C12 myotubes (RT2 Profiler PCR Array, Example 1). The settings on record: 20 ppm ATE or 1 μM methandrostenolone, 6 h. It is filed as cell-based, mouse. As for the experimental part:
(§1) The effect of Ajuga turkestanica extract (ATE) standardized to Turkesterone content was studied in muscle cells. […] Cells between passages 3 and 10 were seeded at a density of 10,000 cells per cm^2. Cells were grown for 48 h until they reached 80-90% confluence. […] Cells were maintained at 37° C. in a humidified 5% CO2 incubator and medium was changed every other day.
(§2) For RNA extraction, C2C12 cells were plated and differentiated to myotubes into 12-wells plates. […] RNA was then extracted using an All Prep RNA/Protein Kit (Qiagen, Spain). Total RNA was quantified using a fluorometric method with Quant-iT kit (Invitrogen, Spain). RNA was stored at −80° C. until further use. cDNA was reverse-transcribed from the RNA extract using RT^2 First Stand cDNA kit and we used a RT^2 Profiler PCR Array to analyze a panel of 84 genes involved in skeletal muscle development and disease (Qiagen, Spain). Quantitative real-time RT-PCR was carried out using a SYBR-Green/ROX detection in a MX3005P Q-PCR System. Samples were heated at 95° C. for 10 min, followed by a second stage composed of 15 sec at 95° C., 1 min at 60° C. which was repeated 40 times and third stage for dissociation curve composed of 1 min at 95° C., 30 sec at 55° C. and 30 sec at 95° C. The PCR-array data was analyzed by calculating relative gene expression and statistical significance through the use of known methods.

In data set [4] the test system is myostatin (Mstn) gene expression in C2C12 muscle cells. The data set can be described thus: Myostatin gene expression in C2C12 myotubes (RT2 Profiler PCR Array, Example 1). Type of data set: cell-based, mouse. The settings on record: 20 ppm ATE or 1 μM methandrostenolone, 6 h. How it is done:
as §1, §2

Another data set deals with C2C12 myotubes. The data set can be described thus: Protein synthesis by radio-labeled leucine incorporation in C2C12 myotubes (Example 3). Type of data set: cell-based, mouse.
In data set [5] the test system is Caspase-3 expression in C2C12 myotubes. The data set can be described thus: Caspase 3 expression in C2C12 myotubes (quantitative RT-PCR, Example 4). It is filed as cell-based, mouse. The settings on record: 24 hours; extracts and turkesterone 0.002, 0.02 and 2 ppm, 20HE 0.001, 0.01 and 1 ppm. How it is done:
Experiments similar to those in example 1 have been carried out with two other plant-derived, ecdysteroid-rich extracts. […] Cells between passages 3 and 10 were seeded at a density of 10,000 cells per cm^2. Cells were grown for 48 h until they reached 80-90% confluence. […] Cells were maintained at 37° C. in a humidified 5% CO2 incubator and medium was changed every other day.
For RNA and protein extraction C2C12 myotubes were incubated with 0.002, 0.02 and 2 ppm of Rhaponticum carthamoides extract (RCE) and Cyanotis arachnoidea extract (CAE) or 0.001, 0.01 and 1 ppm of 20-hydroxyecdysone or 0.002, 0.02 and 2 ppm of Turkesterone for 24 hours. These two latter served as positive controls. RNA and protein were extracted using All Prep RNA/Protein Kit (Qiagen, Spain). RNA was stored at −80° C. and protein at −20° C. until further use. Total RNA was quantified using a fluorometric method with Quant-iT kit (Invitrogen, Spain). The cDNA was reverse-transcribed from the RNA extract using RT^2First Stand cDNA kit (Qiagen, Spain). Quantitative real-time RT-PCR for Caspase-3 and Myostatin were carried out using a MX3005P Q-PCR System (Agilent Technologies) and SYBR-Green/ROX detection. The housekeeping gene used was Actb and Mouse XpressRef Universal total RNA (Qiagen, Spain) as a positive control. […] The fold change in gene expression was calculated with ΔΔCt Method.

For data set [6] the following is noted: cited from earlier work.
The conditions of data set [7]: cited from earlier work; for effect on the sexual apparatus (ventral prostate weight, seminal vesicle weight): sexually immature intact rats.
[8] abbreviates: castrated sexually immature rats.
[9] abbreviates: sexually immature intact rats, 0.5 mg per 100 g intragastrically daily for 10 days.
[10] abbreviates: sexually mature male rats, 0.5 mg per 100 g intragastrically daily for 10 days.

On to `C[C@]1(O)CC[C@H]2[C@@H]3CCC4=CC(=O)CCC4=C3C=C[C@@]21C` [Example R1881, methyltrienolone], for which the IC50 with MCF7-AR1 cells amounted to 0.02 nM.

With `C[C@]12C=CC(=O)C=C1CC[C@@H]1[C@@H]2CC[C@@]2(C)[C@H]1CC[C@]2(C)O` [Nerobol], the “effect of actinomycin D on the stimulation of liver protein synthesis” value in data set [1] was “almost totally removed the effect”. Also, in data set [2] (mice, Nerobol 1.0 mg/100 g, P<0.001), the “increase of protein synthesis in the system of polyribosomes and cellular fluid from livers of treated animals” value is recorded as 14%.

Regarding `C[C@]12C=CC(=O)C=C1CC[C@@H]1[C@@H]2CC[C@@]2(C)[C@H]1CC[C@]2(C)O` [methandrostenolone], the “down-regulation of caspase-3” value in [3] is less than 2 fold. In addition, the “down-regulation of Myostatin” value in data set [4] is given as less than 2 fold. Further, the “effect on protein synthesis” value with C2C12 myotubes (concentrations up to 10 μM) was “no significant effect”. Further, the IC50 with MCF7-AR1 cells was found to be 0.35 nM.

Turning to `CC(C)(O)CC[C@@H](O)[C@](C)(O)[C@H]1CC[C@@]2(O)C3=CC(=O)[C@@H]4C[C@@H](O)[C@@H](O)C[C@]4(C)[C@H]3[C@H](O)C[C@]12C` [turkesterone], in the data set on C2C12 myotubes (40 nM), the “protein synthesis, % of control” value was 110 % of control. In the data set on C2C12 myotubes (0.1 μM), the “protein synthesis, % of control (peak effect)” value is listed as 120 % of control. The “regulation of Caspase 3 expression” value in [5] is given as “significant effect in down regulation”. Besides, the “ratio of test to control (weight gain)” value in data set [6] (setting [8]) is 1.8; in data set [6] (sexually immature intact rats), 2.6. For the same compound, the weight gain in data set [6] (setting [9]) is reported as 38 mg per 1 g initial weight per day. The “total protein content of organs” value in data set [6] (sexually immature intact rats) was “statistically significant increase”. In [6] (setting [10]), the body weight gain is 9.7 mg per 1 g weight per day. In addition, in data set [6] (setting [10]), the “body weight gain relative to control” value was 2 times. For the same compound, the “effect of actinomycin D on the stimulation of liver protein synthesis” value in [1] was “no noticeable effect”. Also, in data set [2] (mouse liver, control group 3.98), the “ratio of translating to nontranslating ribosomes” value is reported as 3.80. Besides, the “weight of the ventral prostate and seminal vesicles” value in data set [7] (setting [8]) was “did not change”; in data set [7] (setting [10]), “did not change significantly”. For the same compound, the “effect on the sexual apparatus (ventral prostate weight, seminal vesicle weight)” value in data set [7] is recorded as “pronounced effect”.

As to turkesterone tetraacetate, the results for the “ratio of test to control (weight gain)” value in [6] (setting [8]) and in [6] (sexually immature intact rats) were 1.9 and 2.5, respectively. The weight gain in data set [6] (setting [9]) is 37.2 mg per 1 g initial weight per day. Moreover, in [6] (sexually immature intact rats), the “total protein content of organs” value is listed as “statistically significant increase”. For the same compound, the “heart weight and weight of the anterior tibial muscle” value in [6] (setting [10]) is listed as “statistically significant increase”. The entries for the “weight of the ventral prostate and seminal vesicles” value in [7] (setting [8]) and in data set [7] (setting [10]) were “did not change” and “did not change significantly”, respectively. Besides, in [7], the “effect on the sexual apparatus (ventral prostate weight, seminal vesicle weight)” value is given as “pronounced effect”.
